From PubChem BioAssay AID330 (DTP/NCI, 2004)
Values joined by “and” are separate entries in the source; they are usually repeats but may differ in a detail not shown here. Equal entries are not always repeated. Toxic doses and inconclusive results are not listed. How the source made its calls: active means survival T/C of 150% or more; inactive means T/C below 125% in these data.

System: P388 leukemia ip, CD2F1 mice, survival T/C
Assay: NCI In Vivo Anticancer Drug Screen. Data for tumor model P388 Leukemia (intraperitoneal) in CD2F1 (CDF1) mice
Settings: endpoint: median survival time, higher = longer survival
Description: The antitumor activity of compounds was measured in mice bearing transplantable tumors. Survival or tumor size were measured and the results are expressed as the measurement made in the treated group (T) divided by the measurement made in the vehicle treated control group (C). The tumor model used in this assay is P388 Leukemia (intraperitoneal) in CD2F1 (CDF1) mice

[1] = dose: 100.0 mg/kg/injection, schedule: Q01DX001 (ip), vehicle: saline with Tween-80
[2] = dose: 240.0 mg/kg/injection, schedule: Q01DX005 (ip), vehicle: saline with Tween-80
[3] = dose: 50.0 mg/kg/injection, schedule: Q01DX005 (ip), vehicle: Klucel (hydroxypropylcellulose) (HPC)
[4] = dose: 100.0 mg/kg/injection, schedule: Q01DX005 (ip), vehicle: Klucel (hydroxypropylcellulose) (HPC)
[5] = dose: 50.0 mg/kg/injection, schedule: Q01DX009 (ip), vehicle: Klucel (hydroxypropylcellulose) (HPC)
[6] = dose: 100.0 mg/kg/injection, schedule: Q01DX009 (ip), vehicle: Klucel (hydroxypropylcellulose) (HPC)
[7] = dose: 200.0 mg/kg/injection, schedule: Q01DX009 (ip), vehicle: Klucel (hydroxypropylcellulose) (HPC)
[8] = dose: 200.0 mg/kg/injection, schedule: Q01DX005 (ip), vehicle: Klucel (hydroxypropylcellulose) (HPC)
[9] = dose: 200.0 mg/kg/injection, schedule: Q01DX005 (ip), vehicle: distilled water + Tween-80
[10] = dose: 100.0 mg/kg/injection, schedule: Q04DX003 (ip), vehicle: saline
[11] = dose: 200.0 mg/kg/injection, schedule: Q04DX003 (ip), vehicle: saline
[12] = dose: 50.0 mg/kg/injection, schedule: Q01DX005 (ip), vehicle: saline with Tween-80
[13] = dose: 100.0 mg/kg/injection, schedule: Q01DX005 (ip), vehicle: saline with Tween-80
[14] = dose: 200.0 mg/kg/injection, schedule: Q01DX005 (ip), vehicle: saline with Tween-80

Measured: T/C

N#CC(/C=C/c1ccccc1)Nc1ccccc1N (stereo not given)
inactive: [1] 100 % of control | dose: 400.0 mg/kg/injection, schedule: Q01DX001 (ip), vehicle: saline with Tween-80 100 % of control

O=P(OCCCl)(OCCCl)C(Nc1cccc2ccccc12)c1ccc(N(CCCl)CCCl)cc1 (stereo not given)
inactive: dose: 60.0 mg/kg/injection, schedule: Q01DX005 (ip), vehicle: saline with Tween-80 98 % of control | dose: 120.0 mg/kg/injection, schedule: Q01DX005 (ip), vehicle: saline with Tween-80 95 % of control | [2] 99 % of control

CCCCCN1C(=O)C2C3CCC(O3)C2C1=O (stereo not given)
inactive: [3] 109 % of control | [4] 109 % of control

O=C(O)c1ccccc1N/N=C\c1cc(/C=N/Nc2ccccc2C(=O)O)nc2[nH]c(=O)ccc12
inactive: dose: 100.0 mg/kg/injection, schedule: Q04DX002 (ip), vehicle: Klucel (hydroxypropylcellulose) (HPC) 102 % of control | dose: 200.0 mg/kg/injection, schedule: Q04DX002 (ip), vehicle: Klucel (hydroxypropylcellulose) (HPC) 107 % of control | dose: 400.0 mg/kg/injection, schedule: Q04DX002 (ip), vehicle: Klucel (hydroxypropylcellulose) (HPC) 105 % of control

Oc1ccccc1C=Nc1ccc2nc(SC3CCCC3)sc2c1
inactive: [5] 93 % of control | [6] 97 % of control | [7] 118 % of control

COc1ccc2c(c1)S(=O)(=O)C(c1ccccc1)=CC2=O
inactive: [3] 114 % of control | [4] 115 % of control | [8] 123 % of control

Cc1ccc(S(=O)(=O)N/N=C/c2ccoc2)cc1
inactive: dose: 12.5 mg/kg/injection, schedule: Q01DX005 (ip), vehicle: distilled water + Tween-80 100 % of control | dose: 25.0 mg/kg/injection, schedule: Q01DX005 (ip), vehicle: distilled water + Tween-80 102 % of control | dose: 50.0 mg/kg/injection, schedule: Q01DX005 (ip), vehicle: distilled water + Tween-80 93 % of control | dose: 100.0 mg/kg/injection, schedule: Q01DX005 (ip), vehicle: distilled water + Tween-80 102 % of control | [9] 100 % of control

CCOC(=O)c1c2c(c[nH]c1=O)CCCC2
inactive: [1] 106 % of control | dose: 200.0 mg/kg/injection, schedule: Q01DX001 (ip), vehicle: saline with Tween-80 97 % of control

Cc1cc2nc(CC(=O)c3cccnc3)c(=O)[nH]c2cc1C
inactive: dose: 7.5 mg/kg/injection, schedule: Q01DX005 (ip), vehicle: saline with Tween-80 100 % of control | dose: 15.0 mg/kg/injection, schedule: Q01DX005 (ip), vehicle: saline with Tween-80 94 % of control | dose: 30.0 mg/kg/injection, schedule: Q01DX005 (ip), vehicle: saline with Tween-80 92 % of control | [2] 88 % of control

CCCCc1ccc(Sc2cccc3c2C(=O)c2c(Sc4ccc(CCCC)cc4)cccc2C3=O)cc1
inactive: dose: 100.0 mg/kg/injection, schedule: Q04DX003 (ip), vehicle: saline with Tween-80 95 % of control | dose: 200.0 mg/kg/injection, schedule: Q04DX003 (ip), vehicle: saline with Tween-80 90 % of control | dose: 400.0 mg/kg/injection, schedule: Q04DX003 (ip), vehicle: saline with Tween-80 86 % of control

CCN(CC)CCCC(C)NCCCN (stereo not given)
inactive: [10] 100 % of control | [11] 90 % of control

CC(C)(C)C#CP(=O)(C#CC(C)(C)C)C#CC(C)(C)C
inactive: dose: 50.0 mg/kg/injection, schedule: Q01DX001 (ip), vehicle: Klucel (hydroxypropylcellulose) (HPC) 97 % of control | dose: 100.0 mg/kg/injection, schedule: Q01DX001 (ip), vehicle: Klucel (hydroxypropylcellulose) (HPC) 99 % of control | dose: 200.0 mg/kg/injection, schedule: Q01DX001 (ip), vehicle: Klucel (hydroxypropylcellulose) (HPC) 95 % of control

COc1ccc(OC)c(N2C(=O)C(=O)C(C(C)=O)C2=O)c1 (stereo not given)
inactive: [5] 107 % of control | [6] 101 % of control | [7] 105 % of control

Nc1ccc2c(-c3ccccc3)cc(=O)[nH]c2c1
inactive: [3] 95 % of control | [4] 100 % of control

COc1ccc(N(C)C(=O)c2ccccc2S(=O)(=O)c2ccccc2C(=O)N(C)c2ccc(OC)cc2)cc1
inactive: [12] 104 % of control | [13] 98 % of control | [14] 100 % of control

CN1CCN(CC(=O)c2c(-c3ccccc3)[nH]c3ccccc23)CC1
inactive: [10] 101 % of control | [11] 105 % of control | dose: 400.0 mg/kg/injection, schedule: Q04DX003 (ip), vehicle: saline 97 % of control

CC1NCCc2c1[nH]c1ccccc21 (stereo not given)
inactive: dose: 12.5 mg/kg/injection, schedule: Q01DX005 (ip), vehicle: Klucel (hydroxypropylcellulose) (HPC) 101 % of control | dose: 25.0 mg/kg/injection, schedule: Q01DX005 (ip), vehicle: Klucel (hydroxypropylcellulose) (HPC) 97 % of control | [3] 101 % of control and 97 % of control

CC(C)CCCC(C)C1CCC2C3CC=C4CC(OC(=O)C56C=CC(=O)C5C5C=CC6CC5)CCC4(C)C3CCC12C (stereo not given)
inactive: dose: 1.56 mg/kg/injection, schedule: Q01DX005 (ip), vehicle: distilled water + Tween-80 100 % of control | dose: 3.12 mg/kg/injection, schedule: Q01DX005 (ip), vehicle: distilled water + Tween-80 90 % of control | [9] 86 % of control

C=CC1CCCC[S+]1CC(=O)OCC (stereo not given)
inactive: dose: 25.0 mg/kg/injection, schedule: Q04DX002 (ip), vehicle: saline with Tween-80 91 % of control | dose: 50.0 mg/kg/injection, schedule: Q04DX002 (ip), vehicle: saline with Tween-80 101 % of control | dose: 100.0 mg/kg/injection, schedule: Q04DX002 (ip), vehicle: saline with Tween-80 103 % of control and 109 % of control

c1ccc(C2=C([P+](c3ccccc3)(c3ccccc3)c3ccccc3)CCO2)cc1
inactive: dose: 1.56 mg/kg/injection, schedule: Q01DX009 (ip), vehicle: saline 110 % of control and 117 % of control | dose: 2.6 mg/kg/injection, schedule: Q01DX009 (ip), vehicle: saline 114 % of control | dose: 3.13 mg/kg/injection, schedule: Q01DX009 (ip), vehicle: saline 119 % of control and 120 % of control | dose: 4.0 mg/kg/injection, schedule: Q01DX009 (ip), vehicle: saline 114 % of control | dose: 6.0 mg/kg/injection, schedule: Q01DX009 (ip), vehicle: saline 117 % of control | dose: 6.25 mg/kg/injection, schedule: Q01DX009 (ip), vehicle: saline 124 % of control | dose: 9.0 mg/kg/injection, schedule: Q01DX009 (ip), vehicle: saline 118 % of control | dose: 12.5 mg/kg/injection, schedule: Q01DX009 (ip), vehicle: saline 100 % of control and 109 % of control

C[Si](C)(C)Cn1ccc2ccccc21
inactive: [12] 100 % of control | [13] 105 % of control | [14] 108 % of control

CN1CCC(CN2c3ccccc3Sc3ccccc32)C1 (stereo not given)
inactive: dose: 12.5 mg/kg/injection, schedule: Q01DX009 (ip), vehicle: saline with Tween-80 104 % of control | dose: 25.0 mg/kg/injection, schedule: Q01DX009 (ip), vehicle: saline with Tween-80 107 % of control | dose: 50.0 mg/kg/injection, schedule: Q01DX009 (ip), vehicle: saline with Tween-80 116 % of control

O=C1CC[C@@H]2CCCC[C@@H]2C1
inactive: dose: 12.5 mg/kg/injection, schedule: Q01DX009 (ip), vehicle: saline sonified 104 % of control | dose: 25.0 mg/kg/injection, schedule: Q01DX009 (ip), vehicle: saline sonified 118 % of control | dose: 50.0 mg/kg/injection, schedule: Q01DX009 (ip), vehicle: saline sonified 100 % of control

O=C(Nc1ccc2oc3ccc(Cl)cc3c(=O)c2c1)c1ccc(Cl)cc1Cl
inactive: [3] 97 % of control | [4] 96 % of control | [8] 96 % of control

COc1ccc(C2[C@@H]3CCc4ccccc4C3=NN2C(C)=O)cc1 (stereo not given in full)
inactive: [12] 93 % of control | [13] 91 % of control | [14] 87 % of control

CCOC(=O)c1cnc2c(OC)ccc(OC)c2c1Cl
inactive: [12] 97 % of control | [13] 97 % of control | [14] 99 % of control

CCOC(=O)c1cc(OC(C)=O)c2ccc(OC)c(OC)c2c1
inactive: dose: 6.25 mg/kg/injection, schedule: Q01DX009 (ip), vehicle: distilled water + Tween-80 101 % of control and 105 % of control and 90 % of control | dose: 50.0 mg/kg/injection, schedule: Q01DX009 (ip), vehicle: distilled water + Tween-80 91 % of control and 93 % of control and 97 % of control | dose: 100.0 mg/kg/injection, schedule: Q01DX009 (ip), vehicle: distilled water + Tween-80 91 % of control | dose: 200.0 mg/kg/injection, schedule: Q01DX009 (ip), vehicle: distilled water + Tween-80 93 % of control
